Experimental data as given in ChEMBL document CHEMBL1142029, “Design, synthesis, and biological activity of novel PPARgamma ligands based on rosiglitazone and 15d-PGJ2” (Bioorg Med Chem Lett, 2005).
Active and inactive are the calls of the source. The rule behind the calls is not given here.

How the values were obtained:
[1] = biological target: T1, Peroxisome proliferator-activated receptor gamma (Homo sapiens) (UniProt P37231); test: Binding affinity for peroxisome proliferator-activated receptor gamma: active
T1 sequence (whole entry): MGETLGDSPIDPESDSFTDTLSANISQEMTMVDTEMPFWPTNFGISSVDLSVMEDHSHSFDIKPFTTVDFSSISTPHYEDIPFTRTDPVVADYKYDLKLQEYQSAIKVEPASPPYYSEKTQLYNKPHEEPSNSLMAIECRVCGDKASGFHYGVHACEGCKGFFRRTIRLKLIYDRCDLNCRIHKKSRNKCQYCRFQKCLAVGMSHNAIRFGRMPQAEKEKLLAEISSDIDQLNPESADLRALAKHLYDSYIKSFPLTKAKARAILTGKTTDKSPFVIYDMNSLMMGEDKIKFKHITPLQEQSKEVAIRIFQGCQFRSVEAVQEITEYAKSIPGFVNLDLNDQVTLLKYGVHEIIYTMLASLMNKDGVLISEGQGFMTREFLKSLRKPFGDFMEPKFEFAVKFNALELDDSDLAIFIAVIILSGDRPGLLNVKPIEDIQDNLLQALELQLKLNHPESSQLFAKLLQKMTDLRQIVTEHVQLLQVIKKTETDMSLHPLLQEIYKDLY

[2] = biological target: T1, Peroxisome proliferator-activated receptor gamma (Homo sapiens); test: Binding affinity for peroxisome proliferator-activated receptor gamma: more active
[3] = biological target: T1, Peroxisome proliferator-activated receptor gamma (Homo sapiens); test: Binding affinity for peroxisome proliferator-activated receptor gamma: weak activity

| Compound | Activity [1] | other results |
| --- | --- | --- |
| CCCCCCCCCCN(CCOc1ccc(CCC(=O)O)cc1)c1ccccn1 | Active | – |
| CN(CCOc1ccc(CCC(=O)O)cc1)c1ccccn1 | Active | – |
| CCCCCCCN(CCOc1ccc(CCC(=O)O)cc1)c1ccccn1 | – | Activity [2]: Active |
| O=C(O)CCc1ccc(OCCN(c2ccccc2)c2ccccn2)cc1 | – | Activity [3]: Weak activity |
| O=C(O)CCc1ccc(OCCN(c2ccccn2)c2ccccn2)cc1 | – | Activity [3]: Weak activity |
| CCN(CCOc1ccc(CCC(=O)O)cc1)c1ccccn1 | Active | – |
| CCCCN(CCOc1ccc(CCC(=O)O)cc1)c1ccccn1 | Active | – |
| CCCCCN(CCOc1ccc(CCC(=O)O)cc1)c1ccccn1 | Active | – |
| CCCCCCN(CCOc1ccc(CCC(=O)O)cc1)c1ccccn1 | Active | – |
| O=C(O)CCc1ccc(OCCn2c3ccccc3c3ccncc32)cc1 | – | Activity [3]: Weak activity |
| CCCCCCCCN(CCOc1ccc(CCC(=O)O)cc1)c1ccccn1 | – | Activity [2]: Active |
| CCCN(CCOc1ccc(CCC(=O)O)cc1)c1ccccn1 | Active | – |
